{"source": "patent US20050175544A1", "about": "“Albuterol inhalation solution, system, kit and method for relieving symptoms of pediatric asthma” (Dey LP, priority 2001, published 2005)", "system": "children ages 6 to 12 with asthma", "experiment": "4-week randomized placebo-controlled trial of nebulized albuterol solution, efficacy by FEV1", "type": "in vivo", "details": "both unit doses; initial dose (Day 1) and after 4 weeks of treatment (Day 28)", "note": "Counter-ions that a name gives are not always drawn.", "experimental": "Patients were randomized to receive a nebulizer solution comprising either 0.63 mg/3 ml or 1.25 mg/3 ml of albuterol sulfate, or a placebo. The inhalation solution was administered via a Pari LC Plus™ nebulizer and a Pari PRONEB™ compressor. […] In this study, qualifying children ages 6 to 12 were randomized to receive 1 of the following three treatments twice daily (TD) for 4 weeks, each in 3.0 mL volume: (1) 1.25 mg albuterol sulfate inhalation solution; (2) 9.63 mg albuterol sulfate inhalation solution; or (3) placebo (saline). Each patient was provided with a personal compressor-driven PARI LC PLUS™ nebulizer, by Pari Respirator Equipment, Inc., Richmond, Va., for the duration of the study. […] The 4-week study period began with the initial dose, to be taken in the morning, administered at the study site. Pre-dose pulmonary function tests and pulmonary function tests 30 minutes after the end of nebulization and hourly thereafter for 6 hours were performed. After 11 days, patients returned for exchange of study medication and diaries and pulmonary function tests before and 30 minutes after the morning dosing. […] The safety profiles of each unit dose and placebo were determined by collecting vital signs (heart rate, blood pressure, respiration rate, and body temperature) as well as electrocardiograms. […]"}
{"smiles": "CC(C)(C)NCC(O)c1ccc(O)c(CO)c1", "note": "(stereo not drawn) [albuterol, α^1-[(tert-butylamino)methyl]-4-hydroxy-m-xylene-α,α′-diol sulfate (2:1)(salt)]", "values": [{"measurement": "Improvement in FEV1 compared to placebo (area under percent change from pre-dose FEV1 versus time curve)", "result": "significant improvement"}]}
